# Patent US11331369B2, “Endoparasitic depsipeptides” (Zoetis Services LLC, priority 2017, dated 2022)
# What was measured:
# [1] = tested on: 4th stage larvae (L4) of Dirofilaria immitis; test: Dirofilaria immitis, L4 Stage (DiL4) In Vitro Assay; assay type: cell-based; conditions: Dirofilaria immitis, 72 h, read-out: DiL4 Minimum Effective Dose (MED), approximately 72 hours incubation; L4 larvae assessed for survival or paralysis
# [2] = tested on: third stage larvae of Haemonchus contortus; test: Haemonchus contortus L3 (HcL3) Assay; assay type: cell-based; conditions: 96 h, read-out: HcL3 Minimum Effective Dose (MED)
Structure (SMILES),minimal effective concentration [1] [µM],minimal effective concentration [2] [µM]
"Cc1ccnn1Cc1ccc(C[C@H]2OC(=O)[C@H](CC(C)C)N(C)C(=O)[C@@H](C)OC(=O)[C@H](CC(C)C)N(C)C(=O)[C@@H](Cc3ccc(Cn4nccc4C)cc3)OC(=O)[C@H](CC(C)C)N(C)C(=O)[C@@H](C)OC(=O)[C@H](CC(C)C)N(C)C2=O)cc1 [Example 1b-160, (3S,6R,9S,12R,15S,18R,21S,24R)-3,9,15,21-tetraisobutyl-4,6,10,16,18,22-hexamethyl-12,24-bis(4-((5-methyl-1H-pyrazol-1-yl)methyl)benzyl)-1,7,13,19-tetraoxa-4,10,16,22-tetraazacyclotetracosan-2,5,8,11,14,17,20,23-octaone]",0.0001 to 0.001,≤ 1
"COCc1ccnn1Cc1ccc(C[C@H]2OC(=O)[C@H](CC(C)C)N(C)C(=O)[C@@H](C)OC(=O)[C@H](CC(C)C)N(C)C(=O)[C@@H](Cc3ccc(Cn4nccc4COC)cc3)OC(=O)[C@H](CC(C)C)N(C)C(=O)[C@@H](C)OC(=O)[C@H](CC(C)C)N(C)C2=O)cc1 [Example 1b-166, (3S,6R,9S,12R,15S,18R,21S,24R)-3,9,15,21-tetraisobutyl-6,18-bis(4-((5-(methoxymethyl)-1H-pyrazol-1-yl)methyl)benzyl)-4,10,12,16,22,24-hexamethyl-1,7,13,19-tetraoxa-4,10,16,22-tetraazacyclotetracosan-2,5,8,11,14,17,20,23-octaone]",≤ 0.0001,1 to 10
"CCOc1cnn(C(C)(C)c2ccc(C[C@H]3OC(=O)[C@H](CC(C)C)N(C)C(=O)[C@@H](C)OC(=O)[C@H](CC(C)C)N(C)C(=O)[C@@H](Cc4ccc(C(C)(C)n5cc(OCC)cn5)cc4)OC(=O)[C@H](CC(C)C)N(C)C(=O)[C@@H](C)OC(=O)[C@H](CC(C)C)N(C)C3=O)cc2)c1 [Example 1b-171, (3S,6R,9S,12R,15S,18R,21S,24R)-6,18-bis(4-(2-(4-ethoxy-1H-pyrazol-1-yl)propan-2-yl)benzyl)-3,9,15,21-tetraisobutyl-4,10,12,16,22,24-hexamethyl-1,7,13,19-tetraoxa-4,10,16,22-tetraazacyclotetracosan-2,5,8,11,14,17,20,23-octaone]",≤ 0.0001,≤ 1
"CC(C)C[C@H]1C(=O)O[C@H](Cc2ccc(Cn3nccc3-c3ccccn3)cc2)C(=O)N(C)[C@@H](CC(C)C)C(=O)O[C@H](C)C(=O)N(C)[C@@H](CC(C)C)C(=O)O[C@H](Cc2ccc(Cn3nccc3-c3ccccn3)cc2)C(=O)N(C)[C@@H](CC(C)C)C(=O)O[C@H](C)C(=O)N1C [Example 1b-173, (3S,6R,9S,12R,15S,18R,21S,24R)-3,9,15,21-tetraisobutyl-4,6,10,16,18,22-hexamethyl-12,24-bis(4-((5-(pyridin-2-yl)-1H-pyrazol-1-yl)methyl)benzyl)-1,7,13,19-tetraoxa-4,10,16,22-tetraazacyclotetracosan-2,5,8,11,14,17,20,23-octaone]",0.0001 to 0.001,≤ 1
"CCOCc1ccnn1Cc1ccc(C[C@H]2OC(=O)[C@H](CC(C)C)N(C)C(=O)[C@@H](C)OC(=O)[C@H](CC(C)C)N(C)C(=O)[C@@H](Cc3ccc(Cn4nccc4COCC)cc3)OC(=O)[C@H](CC(C)C)N(C)C(=O)[C@@H](C)OC(=O)[C@H](CC(C)C)N(C)C2=O)cc1 [Example 1b-176, (3S,6R,9S,12R,15S,18R,21S,24R)-6,18-bis(4-((5-(ethoxymethyl)-1H-pyrazol-1-yl)methyl)benzyl)-3,9,15,21-tetraisobutyl-4,10,12,16,22,24-hexamethyl-1,7,13,19-tetraoxa-4,10,16,22-tetraazacyclotetracosan-2,5,8,11,14,17,20,23-octaone]",≤ 0.0001,≤ 1
"Cc1cccc(-c2ccnn2Cc2ccc(C[C@H]3OC(=O)[C@H](CC(C)C)N(C)C(=O)[C@@H](C)OC(=O)[C@H](CC(C)C)N(C)C(=O)[C@@H](Cc4ccc(Cn5nccc5-c5cccc(C)n5)cc4)OC(=O)[C@H](CC(C)C)N(C)C(=O)[C@@H](C)OC(=O)[C@H](CC(C)C)N(C)C3=O)cc2)n1 [Example 1b-177, (3S,6R,9S,12R,15S,18R,21S,24R)-3,9,15,21-tetraisobutyl-4,6,10,16,18,22-hexamethyl-12,24-bis(4-((5-(6-methylpyridin-2-yl)-1H-pyrazol-1-yl)methyl)benzyl)-1,7,13,19-tetraoxa-4,10,16,22-tetraazacyclotetracosan-2,5,8,11,14,17,20,23-octaone]",≤ 0.0001,≤ 1
"CC(C)C[C@H]1C(=O)O[C@H](Cc2ccc(Cn3nccc3-c3ccc(F)cn3)cc2)C(=O)N(C)[C@@H](CC(C)C)C(=O)O[C@H](C)C(=O)N(C)[C@@H](CC(C)C)C(=O)O[C@H](Cc2ccc(Cn3nccc3-c3ccc(F)cn3)cc2)C(=O)N(C)[C@@H](CC(C)C)C(=O)O[C@H](C)C(=O)N1C [Example 1b-189, (3S,6R,9S,12R,15S,18R,21S,24R)-6,18-bis(4-((5-(5-fluoropyridin-2-yl)-1H-pyrazol-1-yl)methyl)benzyl)-3,9,15,21-tetraisobutyl-4,10,12,16,22,24-hexamethyl-1,7,13,19-tetraoxa-4,10,16,22-tetraazacyclotetracosan-2,5,8,11,14,17,20,23-octaone]",0.0001 to 0.001,10 to 100
"CC(C)C[C@H]1C(=O)O[C@H](Cc2ccc(Cn3nccc3-c3cnccn3)cc2)C(=O)N(C)[C@@H](CC(C)C)C(=O)O[C@H](C)C(=O)N(C)[C@@H](CC(C)C)C(=O)O[C@H](Cc2ccc(Cn3nccc3-c3cnccn3)cc2)C(=O)N(C)[C@@H](CC(C)C)C(=O)O[C@H](C)C(=O)N1C [Example 1b-208, (3S,6R,9S,12R,15S,18R,21S,24R)-3,9,15,21-tetraisobutyl-4,6,10,16,18,22-hexamethyl-12,24-bis(4-((5-(pyrazin-2-yl)-1H-pyrazol-1-yl)methyl)benzyl)-1,7,13,19-tetraoxa-4,10,16,22-tetraazacyclotetracosan-2,5,8,11,14,17,20,23-octaone]",0.001 to 0.01,10 to 100
"COC(C)c1ccnn1Cc1ccc(C[C@H]2OC(=O)[C@H](CC(C)C)N(C)C(=O)[C@@H](C)OC(=O)[C@H](CC(C)C)N(C)C(=O)[C@@H](Cc3ccc(Cn4nccc4C(C)OC)cc3)OC(=O)[C@H](CC(C)C)N(C)C(=O)[C@@H](C)OC(=O)[C@H](CC(C)C)N(C)C2=O)cc1 (stereo partly drawn) [Example 1b-212, (3S,6R,9S,12R,15S,18R,21S,24R)-3,9,15,21-tetraisobutyl-6,18-bis(4-((5-(1-methoxyethyl)-1H-pyrazol-1-yl)methyl)benzyl)-4,10,12,16,22,24-hexamethyl-1,7,13,19-tetraoxa-4,10,16,22-tetraazacyclotetracosan-2,5,8,11,14,17,20,23-octaone]",0.0001 to 0.001,≤ 1
"CC(C)C[C@H]1C(=O)O[C@H](Cc2ccc(C3(n4cccn4)CCC3)cc2)C(=O)N(C)[C@@H](CC(C)C)C(=O)O[C@H](C)C(=O)N(C)[C@@H](CC(C)C)C(=O)O[C@H](Cc2ccc(C3(n4cccn4)CCC3)cc2)C(=O)N(C)[C@@H](CC(C)C)C(=O)O[C@H](C)C(=O)N1C [Example 1c-1, (3S,6R,9S,12R,15S,18R,21S,24R)-6,18-bis(4-(1-(1H-pyrazol-1-yl)cyclobutyl)benzyl)-3,9,15,21-tetraisobutyl-4,10,12,16,22,24-hexamethyl-1,7,13,19-tetraoxa-4,10,16,22-tetraazacyclotetracosan-2,5,8,11,14,17,20,23-octaone]",≤ 0.0001,≤ 1
"CC(C)C[C@H]1C(=O)O[C@H](Cc2ccc(C3(n4cc(OC(C)C)cn4)CCC3)cc2)C(=O)N(C)[C@@H](CC(C)C)C(=O)O[C@H](C)C(=O)N(C)[C@@H](CC(C)C)C(=O)O[C@H](Cc2ccc(C3(n4cc(OC(C)C)cn4)CCC3)cc2)C(=O)N(C)[C@@H](CC(C)C)C(=O)O[C@H](C)C(=O)N1C [Example 1c-3, (3S,6R,9S,12R,15S,18R,21S,24R)-3,9,15,21-tetraisobutyl-6,18-bis(4-(1-(4-isopropoxy-1H-pyrazol-1-yl)cyclobutyl)benzyl)-4,10,12,16,22,24-hexamethyl-1,7,13,19-tetraoxa-4,10,16,22-tetraazacyclotetracosan-2,5,8,11,14,17,20,23-octaone]",≤ 0.0001,≤ 1
"CC(C)C[C@H]1C(=O)O[C@H](Cc2ccc(C(C3CC3)n3cccn3)cc2)C(=O)N(C)[C@@H](CC(C)C)C(=O)O[C@H](C)C(=O)N(C)[C@@H](CC(C)C)C(=O)O[C@H](Cc2ccc(C(C3CC3)n3cccn3)cc2)C(=O)N(C)[C@@H](CC(C)C)C(=O)O[C@H](C)C(=O)N1C (stereo partly drawn) [Example 1c-4, (3S,6R,9S,12R,15S,18R,21S,24R)-6,18-bis(4-(cyclopropyl(1H-pyrazol-1-yl)methyl)benzyl)-3,9,15,21-tetraisobutyl-4,10,12,16,22,24-hexamethyl-1,7,13,19-tetraoxa-4,10,16,22-tetraazacyclotetracosan-2,5,8,11,14,17,20,23-octaone]",0.0001 to 0.001,≤ 1
"CC(C)C[C@H]1C(=O)O[C@H](Cc2ccc(C(C)(C)n3cccn3)cc2)C(=O)N(C)[C@@H](CC(C)C)C(=O)O[C@H](C)C(=O)N(C)[C@@H](CC(C)C)C(=O)O[C@H](Cc2ccc(C(C)(C)n3cccn3)cc2)C(=O)N(C)[C@@H](CC(C)C)C(=O)O[C@H](C)C(=O)N1C [Example 1c-6, (3S,6R,9S,12R,15S,18R,21S,24R)-6,18-bis(4-(2-(1H-pyrazol-1-yl)propan-2-yl)benzyl)-3,9,15,21-tetraisobutyl-4,10,12,16,22,24-hexamethyl-1,7,13,19-tetraoxa-4,10,16,22-tetraazacyclotetracosan-2,5,8,11,14,17,20,23-octaone]",≤ 0.0001,≤ 1
